Data from ChEMBL document CHEMBL1221167, “Small-molecule inhibition of siderophore biosynthesis in Mycobacterium tuberculosis and Yersinia pestis” (Nat Chem Biol, 2005).
Calls of active or inactive are those of the source. No cut-off for these calls is given here.

Assays:
[1] = molecular target: T1, AMP-binding enzyme family protein (Yersinia pestis) (UniProt Q56950); experiment: Inhibition of His6-tagged Yersinia pestis YbtE-mediated [3H]salicyl-ypArCP-H6 formation up to 400 uM after 1.5 hrs by microplate counting
T1 sequence (whole entry): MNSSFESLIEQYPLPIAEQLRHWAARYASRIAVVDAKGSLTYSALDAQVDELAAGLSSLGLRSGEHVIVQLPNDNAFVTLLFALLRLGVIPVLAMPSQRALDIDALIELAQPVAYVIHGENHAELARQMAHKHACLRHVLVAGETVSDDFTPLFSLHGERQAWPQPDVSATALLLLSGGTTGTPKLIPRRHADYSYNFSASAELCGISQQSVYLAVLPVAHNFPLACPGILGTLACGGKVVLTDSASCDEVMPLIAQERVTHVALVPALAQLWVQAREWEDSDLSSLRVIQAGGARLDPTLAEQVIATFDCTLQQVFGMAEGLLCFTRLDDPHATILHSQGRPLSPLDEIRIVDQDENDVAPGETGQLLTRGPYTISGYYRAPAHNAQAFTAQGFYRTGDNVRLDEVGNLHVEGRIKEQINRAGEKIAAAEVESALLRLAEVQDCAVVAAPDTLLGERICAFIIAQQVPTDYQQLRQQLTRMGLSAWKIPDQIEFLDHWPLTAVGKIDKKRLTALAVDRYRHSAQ

[2] = system: Yersinia pestis; experiment: Antimicrobial activity against Yersinia pestis assessed as inhibition of bacterial growth in iron-supplemented medium after 22 hrs; assay type: functional, organism-based
[3] = molecular target: T2, Pyochelin synthase PchD (Pseudomonas aeruginosa, UniProt Q9HWG3); experiment: Inhibition of adenylation activity of Pseudomonas aeruginosa PchD after 15 mins by ATP-[32P]pyrophosphate exchange assay
T2 sequence (Q9HWG3 whole entry): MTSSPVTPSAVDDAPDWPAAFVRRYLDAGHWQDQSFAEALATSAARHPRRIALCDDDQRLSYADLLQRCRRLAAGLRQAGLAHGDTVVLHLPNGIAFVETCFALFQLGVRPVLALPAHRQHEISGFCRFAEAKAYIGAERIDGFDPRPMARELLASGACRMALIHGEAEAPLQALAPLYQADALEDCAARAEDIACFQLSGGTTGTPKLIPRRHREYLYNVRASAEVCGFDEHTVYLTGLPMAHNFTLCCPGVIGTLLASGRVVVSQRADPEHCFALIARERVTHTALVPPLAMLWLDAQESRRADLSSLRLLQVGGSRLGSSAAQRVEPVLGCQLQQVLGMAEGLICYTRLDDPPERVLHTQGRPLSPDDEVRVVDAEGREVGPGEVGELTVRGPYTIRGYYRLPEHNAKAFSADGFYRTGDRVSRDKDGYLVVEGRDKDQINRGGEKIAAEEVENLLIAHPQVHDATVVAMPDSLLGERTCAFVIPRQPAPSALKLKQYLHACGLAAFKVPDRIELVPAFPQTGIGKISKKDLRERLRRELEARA

[4] = system: Yersinia pestis; experiment: Antimicrobial activity against Yersinia pestis assessed as inhibition of bacterial growth in iron-deficient medium after 22 hrs; assay type: functional, organism-based
[5] = system: Mycobacterium tuberculosis; experiment: Inhibition of siderophore production in Mycobacterium tuberculosis H37Rv at 200 uM after 12 hrs by radiometric assay; assay type: functional, organism-based
[6] = system: Mycobacterium tuberculosis; experiment: Antimicrobial activity against Mycobacterium tuberculosis H37Rv assessed as inhibition of bacterial growth in iron-supplemented medium after 8 days; assay type: functional, organism-based; settings: 192 h
[7] = system: Mycobacterium tuberculosis; experiment: Antimicrobial activity against Mycobacterium tuberculosis H37Rv assessed as inhibition of bacterial growth in iron-deficient medium after 8 days; assay type: functional, organism-based; settings: 192 h

SMILES | inhibition [1] | IC50 [2] [µM] | IC50 [3] [µM] | IC50 [4] [µM] | inhibition [5] | IC50 [6] [µM] | IC50 [7] [µM]
Nc1ncnc2c1ncn2[C@@H]1O[C@H](COS(N)(=O)=O)[C@@H](O)[C@H]1O | inactive |  |  |  |  |  | 
Nc1ncnc2c1ncn2[C@@H]1O[C@H](COS(=O)(=O)NC(=O)c2ccccc2O)[C@@H](O)[C@H]1O |  | > 400 | 0.0125 | 51.2 | Active | 39.9 | 2.2
